Measurements published in ChEMBL document CHEMBL3886351, “TrkA kinase inhibitors, compositions and methods thereof” (2015).
pEC50: −log10 of the molar value.

target: High affinity nerve growth factor receptor (Homo sapiens, UniProt P04629); experiment: Kinase Activity Assay: TrkA kinase activity was measured as the ability of the enzyme to phosphorylate a fluorescently labeled peptide substrate. Buffer salts, reagents, and fluorescently labeled peptides were purchased from Carna Biosciences and were of the highest quality available (QSS Assist TRKA_MSA Kit). Enzyme was purchased from Cell Signaling, and was used without further purification. 384-well round bottom assay plates were prepared by the addition of 200 nl of a DMSO solution of compound at various concentrations to final inhibitor concentrations ranging from 100 μM to […]. Next, assay buffer (10 μl) containing substrate and ATP were added, followed by addition of 10 μl of enzyme in assay buffer. Final assays concentrations were: [E]=0.37 nM, [S]=1 μM, [ATP]=2 mM. The reactions were incubated at room temperature for 3 hours resulting in approximately 15% substrate phosphorylation and were terminated by the addition of 5 μl of stop buffer.
Sequence (P04629 whole entry): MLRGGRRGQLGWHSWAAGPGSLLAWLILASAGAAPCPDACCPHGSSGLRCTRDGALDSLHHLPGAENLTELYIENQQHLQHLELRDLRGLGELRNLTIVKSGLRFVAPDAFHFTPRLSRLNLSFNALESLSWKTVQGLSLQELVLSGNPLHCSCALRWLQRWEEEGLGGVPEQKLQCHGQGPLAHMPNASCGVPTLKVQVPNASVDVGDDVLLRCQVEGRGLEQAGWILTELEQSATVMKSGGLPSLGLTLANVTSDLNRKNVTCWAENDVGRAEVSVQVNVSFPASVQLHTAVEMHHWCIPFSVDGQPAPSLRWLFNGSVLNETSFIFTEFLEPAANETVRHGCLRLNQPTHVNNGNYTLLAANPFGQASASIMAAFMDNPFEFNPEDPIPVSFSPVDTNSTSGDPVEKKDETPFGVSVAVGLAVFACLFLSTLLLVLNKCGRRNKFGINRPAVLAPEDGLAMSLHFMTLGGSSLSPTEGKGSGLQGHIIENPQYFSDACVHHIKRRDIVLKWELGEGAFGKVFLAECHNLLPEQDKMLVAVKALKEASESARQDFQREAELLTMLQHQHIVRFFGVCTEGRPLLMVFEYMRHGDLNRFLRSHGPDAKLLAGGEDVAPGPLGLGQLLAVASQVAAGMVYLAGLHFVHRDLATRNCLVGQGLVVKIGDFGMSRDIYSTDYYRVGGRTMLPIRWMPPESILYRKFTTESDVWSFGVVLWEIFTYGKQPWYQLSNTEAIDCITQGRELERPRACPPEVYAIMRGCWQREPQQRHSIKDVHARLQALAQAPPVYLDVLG

Structure (SMILES) | pEC50
C#CC(C)N(Cc1cccc(-c2nccs2)c1)C(=O)Nc1ccc(OC(F)(F)F)cc1 (configuration not stated) | 7.32
CC(C)N(Cc1cccc(-c2nccs2)c1)C(=O)Nc1cnc(C(C)(C)C)nc1 | 6.99
CC1(C)CCN(c2ccc(SC(F)(F)F)cc2)C(=O)N1Cc1c[nH]c2ncccc12 | 7.71

Further lines, results first:

pEC50 | Structure (SMILES)
6.92 | CC(C)N(Cc1cccc(-c2nccs2)c1)C(=O)Nc1ccc(OC(F)(F)F)cc1
7.60 | CC(C)N(Cc1n[nH]c2ncccc12)C(=O)Nc1ccc(SC(F)(F)F)cc1
5.09 | CC(C)N(Cc1cc(-c2nccs2)ccn1)C(=O)Nc1ccc(OC(F)(F)F)cc1
6.85 | CC(C)N(Cc1n[nH]c2ncccc12)C(=O)Nc1ccc(OC(F)(F)F)cc1
